In ChEMBL document CHEMBL1201862, “PubChem BioAssay data set” (2004):
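Five compound concentrations were applied to cells in 96-well plates for 48 hours; endpoints were derived by simple linear interpolation of the resulting dose-response curve. At the GI50, growth is halved.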 Calls of active or inactive are those of the source. No stated cut-off is given here; in the data, active = GI50 up to about 1.1 µM and inactive = higher.

Key:
Assay in all cases: NCI-60 cell line screen, 48 h
TK-10 = tested on: TK-10
SW-620 = tested on: SW-620
HCT-15 = tested on: HCT-15
UO-31 = tested on: UO-31
SK-MEL-2 = tested on: SK-MEL-2
SNB-78 = tested on: SNB-78
Malme-3M = tested on: Malme-3M
SNB-75 = tested on: SNB-75
UACC-257 = tested on: UACC-257
NCI-H522 = tested on: NCI-H522
IGROV-1 = tested on: IGROV-1
KM12 = tested on: KM12
ACHN = tested on: ACHN
A549 = tested on: A549
RPMI-8226 = tested on: RPMI-8226
SK-OV-3 = tested on: SK-OV-3

Compound | GI50 (TK-10) | GI50 (SW-620) | GI50 (HCT-15) [µM] | GI50 (UO-31) | GI50 (SK-MEL-2) | GI50 (SNB-78) | GI50 (Malme-3M) | GI50 (SNB-75) | GI50 (UACC-257) | GI50 (NCI-H522) | GI50 (IGROV-1) | GI50 (KM12) | GI50 (ACHN) | GI50 (A549) | GI50 (RPMI-8226) | GI50 (SK-OV-3)
OCC(O)C(O)C(O)c1nn(-c2ccc(F)cc2)c2nc3cc(Cl)c(Cl)cc3nc12 (stereo not given) | 21.5 µM (inactive) | 26.4 µM (inactive) | 53.3 | 33.5 µM (inactive) | 17.3 µM (inactive) | 13.8 µM (inactive) | 9.51 µM (inactive) | 3.94 µM (inactive) | 21.4 µM (inactive) | 14.9 µM (inactive) | 21.9 µM (inactive) | 23.3 µM (inactive) | > 10 µM (inactive) | 13.3 µM (inactive) | 36.4 µM (inactive) | 23.3 µM (inactive)
Brc1cc(C2OCCCO2)ccc1OCc1ccccc1 | 40.7 µM (inactive) | 30.1 µM (inactive) | 48 | 52.4 µM (inactive) | 81.7 µM (inactive) | 34.8 µM (inactive) | 31.8 µM (inactive) | 45.3 µM (inactive) | 31.9 µM (inactive) | 26.9 µM (inactive) | > 100 µM (inactive) | 33.7 µM (inactive) | 73.6 µM (inactive) | 64.6 µM (inactive) | 25.9 µM (inactive) | > 100 µM (inactive)
O=C1C=CC2(CCCCCCC2=O)CC1 (stereo not given) | > 100 µM (inactive) | > 100 µM (inactive) | > 100 | > 100 µM (inactive) | – | > 100 µM (inactive) | > 100 µM (inactive) | 57.9 µM (inactive) | > 100 µM (inactive) | > 100 µM (inactive) | > 100 µM (inactive) | > 100 µM (inactive) | > 100 µM (inactive) | > 100 µM (inactive) | > 100 µM (inactive) | > 100 µM (inactive)
O=C(/C=C/c1c(O)ccc2ccccc12)c1ccccc1Cl | > 100 µM (inactive) | 24.2 µM (inactive) | 36.4 | 49.1 µM (inactive) | 27.7 µM (inactive) | 44.4 µM (inactive) | 18.5 µM (inactive) | 25.3 µM (inactive) | 19.7 µM (inactive) | 26.7 µM (inactive) | 55.5 µM (inactive) | 38.5 µM (inactive) | 34.3 µM (inactive) | 32.5 µM (inactive) | 27.7 µM (inactive) | > 100 µM (inactive)
CN(C)c1ccc(/C=C(/C(=O)O)c2csc(-c3nc(/C(=C\c4ccc(N(C)C)cc4)C(=O)O)cs3)n2)cc1 | > 100 µM (inactive) | > 100 µM (inactive) | 42.1 | 60.3 µM (inactive) | > 100 µM (inactive) | > 100 µM (inactive) | > 100 µM (inactive) | > 100 µM (inactive) | > 100 µM (inactive) | – | > 100 µM (inactive) | > 100 µM (inactive) | > 100 µM (inactive) | > 100 µM (inactive) | 46.1 µM (inactive) | > 100 µM (inactive)
Cn1cnc([N+](=O)[O-])c1Sc1n[nH]c(-c2ccc(Cl)cc2)n1 | 17.7 µM (inactive) | 21.7 µM (inactive) | – | 19.1 µM (inactive) | 13.6 µM (inactive) | 19.8 µM (inactive) | 11.1 µM (inactive) | 18.6 µM (inactive) | 17.1 µM (inactive) | 11.7 µM (inactive) | 20 µM (inactive) | 18.5 µM (inactive) | 18.7 µM (inactive) | 25.3 µM (inactive) | 22.1 µM (inactive) | 30.9 µM (inactive)
CCOC(=O)C(CCC(N)=O)(CCC(=O)OC)C(=O)OCC | > 100 µM (inactive) | > 100 µM (inactive) | – | > 100 µM (inactive) | – | > 100 µM (inactive) | > 100 µM (inactive) | > 100 µM (inactive) | > 100 µM (inactive) | > 100 µM (inactive) | > 100 µM (inactive) | > 100 µM (inactive) | > 100 µM (inactive) | > 100 µM (inactive) | > 100 µM (inactive) | > 100 µM (inactive)
COc1cc(CNc2cnc3ccc(N)cc3n2)cc(OC)c1OC | > 100 µM (inactive) | 45.1 µM (inactive) | > 100 | > 100 µM (inactive) | > 100 µM (inactive) | > 100 µM (inactive) | > 100 µM (inactive) | > 100 µM (inactive) | > 100 µM (inactive) | > 100 µM (inactive) | > 100 µM (inactive) | > 100 µM (inactive) | > 100 µM (inactive) | > 100 µM (inactive) | 91.4 µM (inactive) | > 100 µM (inactive)
Cc1nc2nnnn2c2c1C(=O)Nc1ccccc1N2 | > 100 µM (inactive) | > 100 µM (inactive) | – | > 100 µM (inactive) | > 100 µM (inactive) | > 100 µM (inactive) | > 100 µM (inactive) | > 100 µM (inactive) | > 100 µM (inactive) | > 100 µM (inactive) | > 100 µM (inactive) | > 100 µM (inactive) | 73.3 µM (inactive) | 62.1 µM (inactive) | > 100 µM (inactive) | > 100 µM (inactive)
COc1cccc(C(=O)N2CCc3ccccc32)c1OC | 57.8 µM (inactive) | 41.9 µM (inactive) | 21 | > 100 µM (inactive) | > 100 µM (inactive) | > 100 µM (inactive) | 60.4 µM (inactive) | 68.4 µM (inactive) | 53.1 µM (inactive) | 47.6 µM (inactive) | > 100 µM (inactive) | 34.7 µM (inactive) | 64.9 µM (inactive) | > 100 µM (inactive) | 35.3 µM (inactive) | 48.8 µM (inactive)
CCc1c(C)[nH]c2c1/C(=N/N=C1\CCCc3[nH]c(C)c(CC)c31)CCC2 | 49.1 µM (inactive) | 28.5 µM (inactive) | 19.4 | 14.5 µM (inactive) | > 100 µM (inactive) | 27.4 µM (inactive) | > 100 µM (inactive) | 20.8 µM (inactive) | 17.5 µM (inactive) | 14.3 µM (inactive) | 20 µM (inactive) | 15.7 µM (inactive) | 18.6 µM (inactive) | 27.9 µM (inactive) | 7.67 µM (inactive) | 30.8 µM (inactive)
Cc1ccc(/N=C2\N=C(N3CC(C)OC(C)C3)c3ccccc32)cc1 (stereo not given) | 34.2 µM (inactive) | 33.9 µM (inactive) | 25.4 | 21.3 µM (inactive) | 24.4 µM (inactive) | 31.1 µM (inactive) | 31.2 µM (inactive) | 27.9 µM (inactive) | 22.7 µM (inactive) | > 10 µM (inactive) | 27.5 µM (inactive) | 22 µM (inactive) | 28.6 µM (inactive) | 39.9 µM (inactive) | 27.2 µM (inactive) | –
Cc1ccc(C)c(NC(=O)CC/C(=N\NC(=O)c2c(O)ccc3ccccc23)C(C)C(=O)c2ccc(O)cc2)c1 (stereo not given) | > 100 µM (inactive) | 41.3 µM (inactive) | 26.5 | 17.9 µM (inactive) | 24.7 µM (inactive) | 36.2 µM (inactive) | 34.8 µM (inactive) | 20.2 µM (inactive) | 31.9 µM (inactive) | 19.9 µM (inactive) | 52 µM (inactive) | 51.2 µM (inactive) | 25.2 µM (inactive) | 65 µM (inactive) | 94.4 µM (inactive) | –
COc1ccc2c(c1)C(=O)N1CCOC1C2C(=O)O (stereo not given) | > 100 µM (inactive) | > 100 µM (inactive) | > 100 | > 100 µM (inactive) | – | > 100 µM (inactive) | – | > 100 µM (inactive) | > 100 µM (inactive) | > 100 µM (inactive) | > 100 µM (inactive) | > 100 µM (inactive) | > 100 µM (inactive) | > 100 µM (inactive) | > 100 µM (inactive) | > 100 µM (inactive)
CC(O)CNC(=O)C(C)Oc1ccc(OCC2CCCCC2)cc1 (stereo not given) | > 100 µM (inactive) | – | > 100 | > 100 µM (inactive) | > 100 µM (inactive) | > 100 µM (inactive) | > 100 µM (inactive) | > 100 µM (inactive) | 73.6 µM (inactive) | > 100 µM (inactive) | > 100 µM (inactive) | > 100 µM (inactive) | > 100 µM (inactive) | > 100 µM (inactive) | – | > 100 µM (inactive)
COc1cc(C[P+](c2ccccc2)(c2ccccc2)c2ccccc2)cc(OC)c1OC | > 100 µM (inactive) | > 100 µM (inactive) | > 100 | > 100 µM (inactive) | > 100 µM (inactive) | > 100 µM (inactive) | > 100 µM (inactive) | > 100 µM (inactive) | > 100 µM (inactive) | > 100 µM (inactive) | > 100 µM (inactive) | > 100 µM (inactive) | > 100 µM (inactive) | > 100 µM (inactive) | > 100 µM (inactive) | > 100 µM (inactive)
COC(=O)/C(=N\NC(N)=S)C(C#N)c1ccccc1 (stereo not given) | > 100 µM (inactive) | > 100 µM (inactive) | > 100 | > 100 µM (inactive) | > 100 µM (inactive) | > 100 µM (inactive) | > 100 µM (inactive) | 19 µM (inactive) | > 100 µM (inactive) | > 100 µM (inactive) | > 100 µM (inactive) | > 100 µM (inactive) | > 100 µM (inactive) | > 100 µM (inactive) | > 100 µM (inactive) | > 100 µM (inactive)
Clc1cccc(Cl)c1C1SCc2nc3ccccc3n21 (stereo not given) | > 100 µM (inactive) | 46.7 µM (inactive) | 24.9 | > 100 µM (inactive) | – | > 100 µM (inactive) | > 100 µM (inactive) | 88.3 µM (inactive) | 21.1 µM (inactive) | > 100 µM (inactive) | 37.2 µM (inactive) | > 100 µM (inactive) | > 100 µM (inactive) | > 100 µM (inactive) | 9.2 µM (inactive) | > 100 µM (inactive)
